Some test systems named below: NCI-H226; HL-60; OVCAR-5; SNB-19; M14; IGROV-1; SK-MEL-28; SK-MEL-5; HOP-92; HT-29; CCRF-CEM; EKVX; A498; DMS-114; SN12C; NCI-H522; HCC 2998; MDA-N; T47D; MDA-MB-435.
Assay in all cases: DTP human tumour cell line panel, 48 h

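Briefly, cells in 96-well plates were exposed to five compound concentrations for 48 h, and endpoints were estimated by linear interpolation. GI50 marks 50% less growth.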 Activity calls are given as the source filed them. Cut-off read from the data, not from the text of the source: active = GI50 up to about 1.1 µM and inactive = higher. A value given as a limit tells only on which side of the number the result lay.

On to `O=C(COc1ccc(/C=C/C(=O)c2ccc(Cl)cc2)cc1)Nc1c(Cl)cccc1Cl`, for which the GI50 is > 100 µM (inactive) with NCI-H226; 0.0607 µM (active) in the experiment with HL-60; 40.8 µM (inactive) in the experiment with OVCAR-5; > 100 µM (inactive) in the experiment with SNB-19; > 100 µM (inactive) in the experiment with M14; > 100 µM (inactive) with IGROV-1. The GI50 was > 100 µM (inactive) in the experiment with SK-MEL-28; 48.3 µM (inactive) in the experiment on SK-MEL-5; 19.1 µM (inactive) with HOP-92; > 100 µM (inactive) with HT-29; 20.8 µM (inactive) with CCRF-CEM; > 100 µM (inactive) with EKVX. The GI50 in the experiment on A498 was > 100 µM (inactive); in the experiment with DMS-114 it was 33.3 µM (inactive); in the experiment with SN12C, > 100 µM (inactive); with NCI-H522, 33.1 µM (inactive).

For `O=C1OC(O)c2cc3c(cc21)OCO3` (stereo not drawn), the GI50 in the experiment with HL-60, in the experiment on SNB-19, in the experiment with M14, in the experiment with IGROV-1, in the experiment on SK-MEL-28 and with SK-MEL-5 was > 100 µM (inactive) in each case. Moreover, the GI50 in the experiment on HOP-92, in the experiment with HT-29, in the experiment with CCRF-CEM, in the experiment with HCC 2998, in the experiment with EKVX and in the experiment on A498 was > 100 µM (inactive) in each case. Moreover, the GI50 in the experiment on DMS-114, in the experiment with SN12C and in the experiment on NCI-H522 was > 100 µM (inactive) each time.

`CC1=C(C)C(=O)c2c(cc3c4ccccc4ccn23)C1=O`: the GI50 in the experiment on NCI-H226, with SNB-19, with M14, with IGROV-1, in the experiment with SK-MEL-28 and in the experiment on SK-MEL-5 was > 100 µM (inactive) throughout. For the same compound, the GI50 was > 100 µM (inactive) in the experiment on HT-29; > 10 µM (inactive) with CCRF-CEM; > 100 µM (inactive) in the experiment with EKVX; > 100 µM (inactive) in the experiment on DMS-114; > 100 µM (inactive) in the experiment with SN12C; > 100 µM (inactive) in the experiment with NCI-H522.

Turning to `O=S(=O)(Nc1ccccc1S(=O)(=O)c1ccccc1)c1ccccc1`, the GI50 in the experiment with NCI-H226 is > 100 µM (inactive); in the experiment with HL-60 it was 30.8 µM (inactive); with OVCAR-5, > 100 µM (inactive); with MDA-N, > 100 µM (inactive); with SNB-19 it was > 100 µM (inactive); in the experiment with M14, > 100 µM (inactive). For the same compound, the GI50 is 59.3 µM (inactive) with T47D; > 100 µM (inactive) with IGROV-1; > 100 µM (inactive) in the experiment on SK-MEL-28; 58.6 µM (inactive) with SK-MEL-5; 76.9 µM (inactive) in the experiment with HOP-92; 48 µM (inactive) in the experiment on HT-29. Also, the GI50 was 42.7 µM (inactive) in the experiment with CCRF-CEM; 44.6 µM (inactive) in the experiment on HCC 2998; 29.4 µM (inactive) with EKVX; 91.8 µM (inactive) in the experiment on A498; > 100 µM (inactive) with MDA-MB-435; > 100 µM (inactive) in the experiment with SN12C. In addition, in the experiment on NCI-H522, the GI50 is 41.2 µM (inactive).

Consider `COC1CCC(=C2C(=O)OC(C)(C)OC2=O)N1` (stereo not drawn), for which the GI50 in the experiment with NCI-H226, in the experiment with HL-60, with OVCAR-5, in the experiment with SNB-19, in the experiment on M14 and in the experiment with IGROV-1 was > 100 µM (inactive) in each case. Further, the GI50 in the experiment with SK-MEL-28, with HT-29, with CCRF-CEM, in the experiment on HCC 2998, with EKVX and with DMS-114 was > 100 µM (inactive) each time. In addition, the GI50 with SN12C and with NCI-H522 was > 100 µM (inactive) throughout.

As to `Cc1cc2c(=O)cc(-c3ccc(O)cc3)oc2c(C(=O)O)c1C`, the GI50 in the experiment on NCI-H226, in the experiment with HL-60, with OVCAR-5, with SNB-19, in the experiment on M14 and with IGROV-1 was > 100 µM (inactive) each time. The GI50 in the experiment on SK-MEL-28, in the experiment on SK-MEL-5, in the experiment on HOP-92, with HT-29, in the experiment on CCRF-CEM and with HCC 2998 was > 100 µM (inactive) in each case. Further, the GI50 in the experiment with EKVX, in the experiment with DMS-114, with SN12C and in the experiment with NCI-H522 was > 100 µM (inactive) each time.

Consider `CCN(CC)c1ccc(Cl)c2c1C(O)(C(C)C)C2(C)C` (stereo not drawn), for which the GI50 is 16.5 µM (inactive) with NCI-H226; 15.6 µM (inactive) in the experiment on HL-60; 16.6 µM (inactive) with OVCAR-5; 15.2 µM (inactive) with SNB-19; 16.4 µM (inactive) in the experiment on M14; 14.7 µM (inactive) with IGROV-1. The GI50 in the experiment on SK-MEL-28 was 22.4 µM (inactive); in the experiment with SK-MEL-5, 15.4 µM (inactive); in the experiment with HT-29 it was 11.8 µM (inactive); with CCRF-CEM it was 18.5 µM (inactive); in the experiment on HCC 2998 it was 14.8 µM (inactive); in the experiment on A498 it was 21.3 µM (inactive). Moreover, the GI50 was 21.2 µM (inactive) with DMS-114, 16.7 µM (inactive) with SN12C and 14.5 µM (inactive) in the experiment on NCI-H522.

For `Nc1nc2c3nc(Nc4ccccc4)sc3nc(=S)n2c2sc(Nc3ccccc3)nc12`, the GI50 in the experiment on NCI-H226 was > 100 µM (inactive); in the experiment with HL-60 it was > 100 µM (inactive); in the experiment with SNB-19, 40.1 µM (inactive); with M14, > 100 µM (inactive); in the experiment on IGROV-1 it was > 100 µM (inactive); with SK-MEL-28, > 100 µM (inactive). The GI50 is > 100 µM (inactive) with SK-MEL-5; 4.66 µM (inactive) in the experiment on HOP-92; > 100 µM (inactive) with HT-29; 22.2 µM (inactive) in the experiment with HCC 2998; > 100 µM (inactive) in the experiment on EKVX; > 100 µM (inactive) in the experiment on A498. Further, the values for the GI50 in the experiment with DMS-114, in the experiment on SN12C and in the experiment with NCI-H522 were 20.3 µM (inactive), 65.5 µM (inactive) and 8.34 µM (inactive), respectively.

For the compound `COc1cc(OC)c2c(=O)c3cccc([N+](=O)[O-])c3n(C)c2c1`, the GI50 with HL-60 is 31.3 µM (inactive); in the experiment with SNB-19 it was > 100 µM (inactive); in the experiment on M14 it was > 100 µM (inactive); in the experiment with IGROV-1, 61.4 µM (inactive); in the experiment on SK-MEL-28 it was > 100 µM (inactive); in the experiment with SK-MEL-5, > 100 µM (inactive). Also, the GI50 with HT-29 is > 100 µM (inactive); in the experiment on CCRF-CEM, 60 µM (inactive); in the experiment on EKVX, > 100 µM (inactive); in the experiment with DMS-114, 69.2 µM (inactive); in the experiment on SN12C, 95.3 µM (inactive); with NCI-H522, 52.4 µM (inactive).

Consider `[O-][S+](Cc1ccccc1)c1nc2ccccc2nc1-c1cccs1` (stereo not drawn), for which the GI50 is 4.06 µM (inactive) with NCI-H226; 3.49 µM (inactive) in the experiment with HL-60; 17.6 µM (inactive) in the experiment with OVCAR-5; 18.2 µM (inactive) in the experiment on SNB-19; 11 µM (inactive) in the experiment with M14; 14.6 µM (inactive) with IGROV-1. Also, the GI50 with SK-MEL-28 was 11.3 µM (inactive); in the experiment with SK-MEL-5, 11.4 µM (inactive); in the experiment on HOP-92, 15.6 µM (inactive); with HT-29, 11.7 µM (inactive); in the experiment with CCRF-CEM, 4 µM (inactive); with HCC 2998, 12.4 µM (inactive). Besides, the GI50 with EKVX was 27.5 µM (inactive); in the experiment with DMS-114 it was 2.5 µM (inactive); in the experiment with SN12C it was 14 µM (inactive); in the experiment with NCI-H522, 1.21 µM (inactive).

Take `Cc1ccc2c(c1)-c1c3c(nn1C)-c1ccccc1SC3O2` (stereo not drawn): the GI50 is 24.5 µM (inactive) in the experiment on HL-60; > 100 µM (inactive) in the experiment with OVCAR-5; > 100 µM (inactive) with IGROV-1; 78.9 µM (inactive) in the experiment on SK-MEL-28; 27 µM (inactive) with HOP-92; 41.6 µM (inactive) in the experiment on HT-29. In addition, the GI50 was 41 µM (inactive) with CCRF-CEM; 34 µM (inactive) in the experiment with HCC 2998; 44.5 µM (inactive) in the experiment with EKVX; 49.7 µM (inactive) in the experiment with A498; 32.3 µM (inactive) with DMS-114; 78.7 µM (inactive) in the experiment on NCI-H522.

For the compound `CC(C)(C)C1=CC(=C(P(=O)(O)O)P(=O)(O)O)C=C(C(C)(C)C)C1=O`, the GI50 in the experiment with NCI-H226, in the experiment on HL-60, in the experiment with OVCAR-5, in the experiment on SNB-19, with M14 and with IGROV-1 was > 50 µM (inactive) in each case. The GI50 in the experiment with SK-MEL-28, in the experiment with SK-MEL-5, in the experiment on HOP-92, in the experiment with HT-29, with CCRF-CEM and in the experiment with HCC 2998 was > 50 µM (inactive) in each case. For the same compound, the GI50 in the experiment with EKVX, in the experiment on A498, with DMS-114 and in the experiment on NCI-H522 was > 50 µM (inactive) each time.

Regarding `CC/C(=C(\c1ccccc1)c1ccc(OCC[N+](C)(C)C)cc1)c1ccccc1` [TAMOXIFEN METHYL IODIDE], the GI50 in the experiment with NCI-H226 is 10.2 µM (inactive); in the experiment with HL-60 it was 2.52 µM (inactive); in the experiment with SNB-19, 17.4 µM (inactive); with M14, 14.7 µM (inactive); in the experiment with IGROV-1, 8.81 µM (inactive); with SK-MEL-28, 8.59 µM (inactive). The GI50 with SK-MEL-5 is 4.59 µM (inactive); in the experiment with HT-29 it was 14.6 µM (inactive); with CCRF-CEM, 11.5 µM (inactive); in the experiment on HCC 2998, 17.1 µM (inactive); in the experiment on EKVX, 15.6 µM (inactive); with A498 it was 19 µM (inactive). In addition, the GI50 with DMS-114 was 9.12 µM (inactive); in the experiment with SN12C, 9.16 µM (inactive); in the experiment with NCI-H522 it was 4.99 µM (inactive).

The values above are taken from ChEMBL document CHEMBL1201862, “PubChem BioAssay data set” (2004).
